In PubChem BioAssay (NCI):
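Cells were grown in 96-well plates and exposed to each compound for 48 hours at five concentrations; endpoints were interpolated linearly between bracketing concentrations, or set to the highest concentration if not reached. TGI: total growth inhibition.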

How the values were obtained:
Assay in all cases: NCI-60 cell line screen, 48 h
K-562 leukemia = test system: K-562 leukemia
UO-31 renal = test system: UO-31 renal
SF-539 CNS = test system: SF-539 CNS
XF 498 CNS = test system: XF 498 CNS
KM20L2 colon = test system: KM20L2 colon
CCRF-CEM leukemia = test system: CCRF-CEM leukemia
ACHN renal = test system: ACHN renal
HOP-62 NSCLC = test system: HOP-62 NSCLC
UACC-62 melanoma = test system: UACC-62 melanoma
SK-OV-3 ovarian = test system: SK-OV-3 ovarian
NCI-H226 lung = test system: NCI-H226 lung
SR leukemia = test system: SR leukemia
SK-MEL-28 melanoma = test system: SK-MEL-28 melanoma
TK-10 renal = test system: TK-10 renal
HCT-15 colon = test system: HCT-15 colon
SNB-78 CNS = test system: SNB-78 CNS
RXF 393 renal = test system: RXF 393 renal
A498 renal = test system: A498 renal
HOP-18 NSCLC = test system: HOP-18 NSCLC
SNB-19 CNS = test system: SNB-19 CNS
HL-60(TB) leukemia = test system: HL-60(TB) leukemia
KM12 colon = test system: KM12 colon
UACC-257 melanoma = test system: UACC-257 melanoma
M19-MEL melanoma = test system: M19-MEL melanoma
OVCAR-3 ovarian = test system: OVCAR-3 ovarian
A549 NSCLC = test system: A549 NSCLC
IGROV1 ovarian = test system: IGROV1 ovarian
HOP-92 NSCLC = test system: HOP-92 NSCLC
OVCAR-8 ovarian = test system: OVCAR-8 ovarian
SF-295 CNS = test system: SF-295 CNS
DLD-1 colon = test system: DLD-1 colon
DMS 114 small cell lung = test system: DMS 114 small cell lung
EKVX NSCLC = test system: EKVX NSCLC
NCI-H460 lung = test system: NCI-H460 lung
SN12C renal = test system: SN12C renal
LOX IMVI melanoma = test system: LOX IMVI melanoma
MOLT-4 leukemia = test system: MOLT-4 leukemia
DMS 273 small cell lung = test system: DMS 273 small cell lung
HT29 colon = test system: HT29 colon
HCC-2998 colon = test system: HCC-2998 colon
M14 melanoma = test system: M14 melanoma
NCI-H23 lung = test system: NCI-H23 lung
SW-620 colon = test system: SW-620 colon
RPMI-8226 leukemia = test system: RPMI-8226 leukemia
COLO 205 colon = test system: COLO 205 colon
MALME-3M melanoma = test system: MALME-3M melanoma
SF-268 CNS = test system: SF-268 CNS
OVCAR-4 ovarian = test system: OVCAR-4 ovarian
786-0 renal = test system: 786-0 renal
LXFL 529 NSCLC = test system: LXFL 529 NSCLC
U251 CNS = test system: U251 CNS
HCT-116 colon = test system: HCT-116 colon
OVCAR-5 ovarian = test system: OVCAR-5 ovarian
SK-MEL-2 melanoma = test system: SK-MEL-2 melanoma
NCI-H522 lung = test system: NCI-H522 lung
RXF-631 renal = test system: RXF-631 renal
SNB-75 CNS = test system: SNB-75 CNS
SK-MEL-5 melanoma = test system: SK-MEL-5 melanoma
CAKI-1 renal = test system: CAKI-1 renal

NC(=S)N1N=C2c3ccccc3CC[C@H]2[C@@H]1c1cccs1 gave a TGI (K-562 leukemia) of 35.5 µM, a TGI (UO-31 renal) greater than 100 µM and a TGI (SF-539 CNS) greater than 100 µM. The TGI (XF 498 CNS) was greater than 100 µM, the TGI (KM20L2 colon) was 62.9 µM and the TGI (CCRF-CEM leukemia) was 81.5 µM. For the same compound, the TGI (ACHN renal) was greater than 100 µM, the TGI (HOP-62 NSCLC) was greater than 100 µM and the TGI (UACC-62 melanoma) was greater than 100 µM. It also gave a TGI (SK-OV-3 ovarian) greater than 100 µM, a TGI (NCI-H226 lung) greater than 100 µM and a TGI (SR leukemia) of 63 µM. The TGI (SK-MEL-28 melanoma) was greater than 100 µM, the TGI (TK-10 renal) was greater than 100 µM and the TGI (HCT-15 colon) was greater than 100 µM. It also gave a TGI (SNB-78 CNS) greater than 100 µM, a TGI (RXF 393 renal) of 83 µM and a TGI (A498 renal) greater than 100 µM. It also gave a TGI (HOP-18 NSCLC) greater than 100 µM, a TGI (SNB-19 CNS) greater than 100 µM and a TGI (HL-60(TB) leukemia) of 42.8 µM. The TGI (KM12 colon) was greater than 100 µM, the TGI (UACC-257 melanoma) was greater than 100 µM and the TGI (M19-MEL melanoma) was greater than 100 µM. For the same compound, the TGI (OVCAR-3 ovarian) was greater than 100 µM, the TGI (A549 NSCLC) was greater than 100 µM and the TGI (IGROV1 ovarian) was greater than 100 µM. It also gave a TGI (HOP-92 NSCLC) greater than 100 µM, a TGI (OVCAR-8 ovarian) greater than 100 µM and a TGI (SF-295 CNS) of 58.1 µM. For the same compound, the TGI (DLD-1 colon) was greater than 100 µM, the TGI (DMS 114 small cell lung) was 61.1 µM and the TGI (EKVX NSCLC) was greater than 100 µM. The TGI (NCI-H460 lung) was greater than 100 µM, the TGI (SN12C renal) was greater than 100 µM and the TGI (LOX IMVI melanoma) was greater than 100 µM. The TGI (MOLT-4 leukemia) was 94.5 µM, the TGI (DMS 273 small cell lung) was 36.6 µM and the TGI (HT29 colon) was 73.3 µM. It also gave a TGI (HCC-2998 colon) greater than 100 µM, a TGI (M14 melanoma) of 60.8 µM and a TGI (NCI-H23 lung) of 87.9 µM. For the same compound, the TGI (SW-620 colon) was greater than 100 µM, the TGI (RPMI-8226 leukemia) was greater than 100 µM and the TGI (COLO 205 colon) was 40 µM. The TGI (MALME-3M melanoma) was 80.2 µM, the TGI (SF-268 CNS) was greater than 100 µM and the TGI (OVCAR-4 ovarian) was greater than 100 µM. The TGI (786-0 renal) was greater than 100 µM, the TGI (LXFL 529 NSCLC) was greater than 100 µM and the TGI (U251 CNS) was greater than 100 µM. It also gave a TGI (HCT-116 colon) greater than 100 µM, a TGI (OVCAR-5 ovarian) greater than 100 µM and a TGI (SK-MEL-2 melanoma) of 79 µM. The TGI (NCI-H522 lung) was 56.1 µM.
For Clc1ccc(OC2CCO2)cc1Cl (centres undefined), the TGI (K-562 leukemia) was greater than 100 µM, the TGI (UO-31 renal) was greater than 100 µM and the TGI (SF-539 CNS) was greater than 100 µM. It also gave a TGI (KM20L2 colon) greater than 100 µM, a TGI (CCRF-CEM leukemia) greater than 100 µM and a TGI (ACHN renal) greater than 100 µM. For the same compound, the TGI (HOP-62 NSCLC) was greater than 100 µM, the TGI (UACC-62 melanoma) was greater than 100 µM and the TGI (RXF-631 renal) was greater than 100 µM. The TGI (SK-OV-3 ovarian) was greater than 100 µM, the TGI (NCI-H226 lung) was greater than 100 µM and the TGI (SK-MEL-28 melanoma) was greater than 100 µM. It also gave a TGI (TK-10 renal) greater than 100 µM, a TGI (HCT-15 colon) of 36.8 µM and a TGI (SNB-78 CNS) greater than 100 µM. The TGI (SNB-75 CNS) was greater than 100 µM, the TGI (A498 renal) was greater than 100 µM and the TGI (HOP-18 NSCLC) was greater than 100 µM. For the same compound, the TGI (SNB-19 CNS) was greater than 100 µM, the TGI (HL-60(TB) leukemia) was greater than 100 µM and the TGI (KM12 colon) was greater than 100 µM. For the same compound, the TGI (UACC-257 melanoma) was greater than 100 µM, the TGI (SK-MEL-5 melanoma) was greater than 100 µM and the TGI (M19-MEL melanoma) was greater than 100 µM. For the same compound, the TGI (OVCAR-3 ovarian) was greater than 100 µM, the TGI (CAKI-1 renal) was greater than 100 µM and the TGI (A549 NSCLC) was greater than 100 µM. For the same compound, the TGI (IGROV1 ovarian) was greater than 100 µM, the TGI (HOP-92 NSCLC) was greater than 100 µM and the TGI (OVCAR-8 ovarian) was greater than 100 µM. The TGI (SF-295 CNS) was greater than 100 µM, the TGI (DLD-1 colon) was greater than 100 µM and the TGI (DMS 114 small cell lung) was greater than 100 µM. The TGI (EKVX NSCLC) was greater than 100 µM, the TGI (NCI-H460 lung) was greater than 100 µM and the TGI (SN12C renal) was greater than 100 µM. The TGI (MOLT-4 leukemia) was greater than 100 µM, the TGI (DMS 273 small cell lung) was greater than 100 µM and the TGI (HT29 colon) was greater than 100 µM. The TGI (HCC-2998 colon) was greater than 100 µM, the TGI (M14 melanoma) was greater than 100 µM and the TGI (NCI-H23 lung) was greater than 100 µM. For the same compound, the TGI (SW-620 colon) was 33.6 µM, the TGI (RPMI-8226 leukemia) was greater than 100 µM and the TGI (COLO 205 colon) was greater than 100 µM. For the same compound, the TGI (MALME-3M melanoma) was greater than 100 µM, the TGI (SF-268 CNS) was greater than 100 µM and the TGI (OVCAR-4 ovarian) was greater than 100 µM. For the same compound, the TGI (786-0 renal) was greater than 100 µM, the TGI (LXFL 529 NSCLC) was greater than 100 µM and the TGI (U251 CNS) was greater than 100 µM. It also gave a TGI (HCT-116 colon) greater than 100 µM, a TGI (OVCAR-5 ovarian) greater than 100 µM and a TGI (NCI-H522 lung) greater than 100 µM.
